Experimental findings from patent US20220304945A1, “METHODS OF TREATING METABOLIC SYNDROME RELATED CONDITIONS USING RETINOIC ACID RECEPTOR AGONISTS” (Cornell University, priority 2014, published 2022) are described below.

Entries after “also recorded” stand apart in the source; their conditions may differ.

Holding throughout (format): in vivo, mouse
The test system of assay [1] is HF-fed and genetically obese mice. As to the kind of experiment: Tissue triglyceride analysis and H and E staining of liver, pancreas, kidney, muscle, adipose tissue. An excerpt: Mice, diet, and drug treatment. Dietary Obesity Studies: Wild type (wt) male C57/BL6 male mice were maintained on either a standard laboratory chow-fed diet (Con) with 13% kcal fat, (diet #5053, Lab Diet, Inc, St. Louis, Mo.) or a high fat, western style diet (HFD) with 45% kcals from fat, (diet #58126, Lab Diet, Inc., St. Louis, Mo.) for 4 months. One month after the start of the HFD treatment, the Con and HFD groups werefurther split into 3 additional groups for […] to: i) remain on either Con or HFD and the drinking water containing 1% DMSO; ii) Con or HFD and drinking water containing 3.0 mg/100 ml AC261066, a specific RARβ agonist in 1% DMSO, or iii) Con or HFD and drinking water containing 3.0 mg/100 ml of AC55649, another specific RARβ agonist in 1% DMSO. All mice remained on their diets for 4 months. […]
Tissue Triglyceride Analysis: Total tissue lipids were extracted from using the Folch method. […] Tissue triglycerides were determined enzymatically using Triglycerides Reagent kit (Invitrogen, Life Technologies, Carlsbad, Calif., USA) according to the manufacture's protocol. Tissue triglycerides were normalized to tissue protein concentrations and reported as mean±standard error of the mean (S.E.M) and P-values were calculated using one-way analysis of variance followed by Bonferroni multiple comparison test post-hoc analysis.

The subject of a further assay is HF-fed C57/BL6 mice. Nature of the assay: HF-fed mice treated 3 months: body weight, GTT, fasting glucose (Example 22). Here is the method: METHODS. Preparation of RARβ agonists solution. AC261066 and AC55649 were dissolved in dimethyl sulfoxide (DMSO) at the concentration of 3.0 mg/ml and diluted in the drinking water for mice to the final concentration of 3.0-mg/100 ml. Mice, diet, and drug treatments. Wt male C57/BL6 male mice were maintained on either a standard laboratory chow-fed diet (Con) with 13% kcal fat, (diet #5053, Lab Diet, Inc, St. Louis, Mo., [n=4]) or a high fat, western style diet (HFD) with 45% kcals from fat, (diet #58126, Lab Diet, Inc., St. Louis, Mo.) for 3 months. Two weeks after the start of the HFD treatment, the HFD group was further split into 3 groups for 3 months: i) HFD and drinking water containing 1% DMSO (n=5); ii) high fat diet (HFD) and drinking water containing 3.0 mg/100 ml AC261066, a specific RARβ agonist (n=5) or iii) HFD and drinking water containing 3.0 mg/100 ml AC55649, a specific RARβ agonist (n=4). After 3 months the mice were tested for glucose intolerance with an intra-peritoneal glucose tolerance test (GTT). Mice were then sacrificed by cervical dislocation. Blood and various tissue samples were harvested.
Glucose Tolerance Test (GTT). Glucose tolerance was performed using an intraperitoneal glucose tolerance test (GTT). Mice were fasted overnight (˜16 hrs) followed by intra-peritoneal injections (n=3-5 per group) of 50% glucose in PBS at 2.0 g of glucose/kg of body weight. Tail vein blood was collected at 15, 30, 45, 60, and 120 minutes post-injection for glucose measurements using a FreeStyle Lite Blood Glucose Monitoring System (Abbott Diabetes Care, Inc. Alameda, Calif.). Random and fasting blood glucose measurements were taken from tail veins of 4 mice per group at 2-3 random time points daily or just prior to GTT. Means are expressed as ±standard error of the mean (S.E.M) and P-values were calculated using one-way analysis of variance followed by Bonferroni post-hoc analysis. Grubbs' maximum normal residual test was used for detection of one or more outliers.

The subject of assay [2] is 4-HNE, oxidative stress in the kidneys. As to the kind of experiment: 4-HNE staining of kidney, HF-fed mice. As to conditions: HF diet mice; vs high fat diet group. An excerpt: (§1) Mice, diet, and drug treatment. WT male C57/BL6 male mice were maintained on either a standard laboratory chow-fed diet (CFD) with 13% kcal fat, (diet #5053, Lab Diet, Inc, St. Louis, Mo.) or a high fat, western style diet (HFD) with 60% kcals from fat, (diet #58126, Lab Diet, Inc., St. Louis, Mo.) for 4 months. One month after the start of the high fat diet treatment, the high fat diet group was further split into 2 groups for 3 months: i) high fat diet and the drinking water containing 1% DMSO; ii) high fat diet and the drinking water containing 1.5 mg/100 ml AC261066, a specific RARβ agonist. Then mice were sacrificed by cervical dislocation. Blood and various tissue samples were harvested.
(§2) 4-hydroxynonenal (4-HNE) staining. Paraffin-embedded sections (from two to four mice per group) were deparaffinized and rehydrated, and antigen retrieval was performed using an antigen unmasking solution (Vector Laboratories, H-3300). After quenching endogenous peroxidase with 3% H2O2, the tissue sections were blocked with the blocking reagent (from the M.O.M. kit from Vector Laboratories). Then, tissue sections were incubated with a 4-HNE antibody (1:400; mouse monoclonal antibody; Abcam, ab48506) overnight at 4° C. The sections were then incubated with secondary antibodies (1:200, anti-mouse IgG from the M.O.M kit). […]

Assay [3] deals with 4-HNE, oxidative stress in pancreatic islets. Nature of the assay: 4-hydroxynonenal (4-HNE) staining of pancreas, HF-fed mice. As to conditions: HF diet mice, AC261066 in drinking water; vs HF-vehicle.
From the text: as §1, §2

The test system of assay [4] is 4-HNE, oxidative stress in the liver. As to the kind of experiment: 4-HNE staining of liver, HF-fed mice. As to conditions: HF diet mice; vs high fat diet group.
From the text: as §1, §2

Regarding `CCCCOCCOc1nc(-c2ccc(C(=O)O)c(F)c2)sc1C` [AC261066], the “accumulation of liver, pancreas, kidney, muscle and adipose triglycerides” value in assay [1] is “reduces”. Besides, in the assay with HF-fed C57/BL6 mice, the “glucose tolerance and area under the curve glucose” value was “improved”; the “overnight fasting glucose levels” value is “significant reductions”. In addition, in the assay with HF-fed C57/BL6 mice (3.0 mg/100 ml drinking water), the “decrease in body weights compared to HF-fed mice” value was roughly 10%. Moreover, the “4-HNE level (oxidative stress, ROS) in kidneys” value in assay [2] was “reduces oxidative stress; also recorded: lower”. The “4-HNE level (oxidative stress) in pancreatic islets” value in assay [3] was “reduces oxidative stress; also recorded: markedly lower”. Further, the “4-HNE level (oxidative stress, ROS) in liver” value in assay [4] was “reduces oxidative stress; also recorded: lower”.
